Test results: paper PMC9551036, “A selective and orally bioavailable VHL-recruiting PROTAC achieves SMARCA2 degradation in vivo” (Nature Communications, 2022)
Several values for one entry are separate records, joined by “and”; a condition that tells them apart may be missing. Equal values may be shown once. Read-outs that look alike come from different tables or passages of the source.

Tests used:
NCI-H1568 cells = experiment: Cell viability assay (CellTiter Glo) in NCI-H1568; assay type: cell-based, human; details: for EC50: read-out: EC50 cell proliferation (CellTiter Glo); for IC50: NCI-H1568, (18h), CellTiter Glo, individual replicates, read-out: NCI-H1568 (18h) CTG
Experimental: 500–2000 cells were seeded in white, clear bottom 96-well plates (Corning or Perkin Elmer) in 180–200 µl medium per well. The next day, compounds were added using a digital dispenser and a T0 sample was measured for reference. […], and viability (luminescence) was measured using CellTiter Glo or CellTiter Glo 2.0 (Promega) according to manufacturer’s instructions after equilibrating cells and reagents at room temperature and 10–20 min incubation time while shaking.

[1] = biological target: VCB: PROTAC: SMARCA2^BD ternary complex (Homo sapiens, UniProt P40337+P51531); experiment: TR-FRET ternary complex affinity and cooperativity, SMARCA2; assay type: binding; parameters: P51531-2, residues 1373-1493 with additional N-terminal SM residues; GST (TEV site) (N); His6 (TEV site) (N, cleaved yes); made in house; host or cells: SMARCA2^BD: Escherichia coli BL21(DE3)
VCB: PROTAC: SMARCA2^BD ternary complex (Homo sapiens, UniProt P40337+P51531), sequence (P51531 with tags, fused parts or gaps isoform P51531-2): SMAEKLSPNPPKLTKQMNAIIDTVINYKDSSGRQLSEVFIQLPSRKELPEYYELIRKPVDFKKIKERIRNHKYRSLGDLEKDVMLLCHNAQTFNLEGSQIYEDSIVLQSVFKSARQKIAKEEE
VCB: PROTAC: SMARCA2^BD ternary complex (Homo sapiens, UniProt P40337+P51531), sequence (P40337 54-213): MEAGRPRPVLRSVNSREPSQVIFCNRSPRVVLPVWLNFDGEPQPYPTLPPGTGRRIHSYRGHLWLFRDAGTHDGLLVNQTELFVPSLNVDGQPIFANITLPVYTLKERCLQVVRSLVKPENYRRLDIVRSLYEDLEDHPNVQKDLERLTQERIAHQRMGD
VCB: PROTAC: SMARCA2^BD ternary complex (Homo sapiens, UniProt P40337+P51531), sequence (Q15369 17-112 partner): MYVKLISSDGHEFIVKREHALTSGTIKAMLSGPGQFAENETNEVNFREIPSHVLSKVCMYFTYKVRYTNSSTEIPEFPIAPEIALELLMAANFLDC
VCB: PROTAC: SMARCA2^BD ternary complex (Homo sapiens, UniProt P40337+P51531), sequence (Q15370 1-104 partner): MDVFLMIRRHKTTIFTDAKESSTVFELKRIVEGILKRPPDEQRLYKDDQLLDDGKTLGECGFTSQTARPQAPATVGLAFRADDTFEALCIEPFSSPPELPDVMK

PBRM1 BD = biological target: T1, PBRM1 BD (Homo sapiens, UniProt Q86U86); experiment: TR-FRET binary and ternary (PROTAC + VCB) affinity, PBRM1 bromodomain; assay type: binding; details: individual replicates
T1 construct: GST (TEV site) (N); made in house; host or cells: Escherichia coli BL21(DE3)

[2] = biological target: T2, VCB: PROTAC: SMARCA2^BD ternary complex (Homo sapiens, UniProt P51531); experiment: TR-FRET ternary complex affinity and cooperativity, SMARCA2; assay type: binding
T2 construct: P51531-2, residues 1373-1493 with additional N-terminal SM residues; GST (TEV site) (N); His6 (TEV site) (N, cleaved yes); made in house; host or cells: SMARCA2^BD: Escherichia coli BL21(DE3)
T2 sequence (P51531 with tags, fused parts or gaps isoform P51531-2): as the sequence (P51531 with tags, fused parts or gaps isoform P51531-2) above

[3] = biological target: VCB: PROTAC: SMARCA4^BD ternary complex (Homo sapiens, UniProt P40337+P51532); experiment: TR-FRET ternary complex affinity and cooperativity, SMARCA4; assay type: binding; parameters: P51532, residues 1448–1569 with additional N-terminal SM residues; GST (TEV site) (N); His6 (TEV site) (N, cleaved yes); made in house; host or cells: SMARCA4^BD: Escherichia coli BL21(DE3)
VCB: PROTAC: SMARCA4^BD ternary complex, sequence (P51532 1448-1569): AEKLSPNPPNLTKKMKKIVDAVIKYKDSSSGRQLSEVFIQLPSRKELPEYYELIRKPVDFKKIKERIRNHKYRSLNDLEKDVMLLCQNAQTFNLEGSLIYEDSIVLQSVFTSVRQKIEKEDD
VCB: PROTAC: SMARCA4^BD ternary complex, sequence (P40337 54-213): as the sequence (P40337 54-213) above
VCB: PROTAC: SMARCA4^BD ternary complex, sequence (Q15369 17-112 partner): as the sequence (Q15369 17-112 partner) above
VCB: PROTAC: SMARCA4^BD ternary complex, sequence (Q15370 1-104 partner): as the sequence (Q15370 1-104 partner) above

PBRM1BD5 = biological target: T3, PBRM1BD5 (Homo sapiens, UniProt Q86U86); experiment: TR-FRET ternary complex affinity and cooperativity, PBRM1; assay type: binding
T3 construct: GST (TEV site) (N); His6 (TEV site) (N, cleaved yes); made in house; host or cells: PBRM1^BD5: Escherichia coli BL21(DE3)
T3 sequence (Q86U86 645-766): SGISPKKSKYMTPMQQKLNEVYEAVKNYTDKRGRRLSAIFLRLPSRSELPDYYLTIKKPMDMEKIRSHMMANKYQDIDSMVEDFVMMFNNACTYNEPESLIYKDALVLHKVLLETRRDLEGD

[4] = PROTAC + VCB, individual replicates, read-out: Ternary SMARCA2 BD EC50 (PROTAC + VCB)
[5] = TR-FRET competition for SMARCA2BD, + VCB, mean ± SD, read-out: TR-FRET Ternary SMARCA2BD EC50 (PROTAC + VCB)
[6] = PROTAC + VCB, read-out: Ternary PBRM1 BD EC50 (PROTAC + VCB)
[7] = binary, PROTAC alone, read-out: PBRM1 EC50
[8] = TR-FRET competition for SMARCA2BD, without VCB, mean ± SD, read-out: TR-FRET SMARCA2BD EC50
[9] = binary, PROTAC alone, individual replicates, read-out: SMARCA2 BD EC50
[10] = PROTAC + VCB, individual replicates, read-out: Ternary SMARCA4 BD EC50 (PROTAC + VCB)
[11] = TR-FRET competition for SMARCA4BD, + VCB, mean ± SD, read-out: TR-FRET Ternary SMARCA4BD EC50 (PROTAC + VCB)
[12] = TR-FRET competition for PBRM1BD5, without VCB, mean ± SD, read-out: TR-FRET PBRM1BD EC50

Row | SMILES | EC50 (NCI-H1568 cells; Homo sapiens, NCI-H1568, […]) | EC50 [1, 4] | EC50 [1, 5] | EC50 (PBRM1 BD; [6]) | EC50 (PBRM1 BD; [7]) | EC50 [2, 8] | EC50 [2, 9] | EC50 [3, 10] | EC50 [3, 11] | EC50 (PBRM1BD5; [12]) | IC50 (NCI-H1568 cells) | EC50 (PBRM1 BD; PBRM1 EC50, binary, PROTAC alone) | EC50 (PBRM1 BD; Ternary PBRM1 BD EC50 (PROTAC + VCB), PROTAC + VCB) | EC50 (PBRM1BD5) | EC50 (NCI-H1568 cells; NCI-H1568 ([…]), mean ± SD)
1 | CN1CCC(c2ccc3c(c2)n(C2CCCC2)c2nc(=O)c4c(Br)cccc4n32)CC1 [compound 3] | 1260 nM | 47 nM (2×) and 96.4 nM and 69.7 nM and 57.6 nM and 57.7 nM and 58.1 nM and 59.4 nM (2×) and 54.3 nM and 59.7 nM and 63.5 nM (2×) and 58 nM and 45.7 nM (2×) and 61 nM and 62.5 nM and 63 nM and 66 nM and 76.9 nM and 76.2 nM and 50.2 nM (2×) and 85.7 nM and 89.5 nM and 39.5 nM and 43.8 nM and 41.8 nM (2×) and 41.3 nM and 35.6 nM and 36.2 nM (2×) and 55 nM (2×) and 47.9 nM and 37.4 nM and 47.3 nM and 34.2 nM and 38 nM and 43.3 nM and 32.2 nM and 42.1 nM and 43.2 nM and 39.4 nM and 37.7 nM and 41.7 nM (2×) and 32.6 nM and 30.6 nM and 34.7 nM and 32.9 nM and 43.9 nM and 57.4 nM and 44.7 nM and 46.2 nM (5×) and 47.6 nM (2×) and 48.7 nM (3×) and 51.6 nM and 50.9 nM and 44.2 nM and 41.9 nM and 46.5 nM and 46.1 nM (2×) and 48.5 nM and 51.2 nM and 50.5 nM and 49.4 nM and 51.5 nM and 52.8 nM and 52.3 nM and 53.6 nM and 53.3 nM and 52.1 nM (2×) and 54.8 nM (2×) and 53.5 nM (2×) and 45.5 nM and 46.3 nM and 53.7 nM and 51.7 nM and 68.5 nM and 52.7 nM and 51.8 nM and 46.9 nM and 45.4 nM and 45.9 nM and 46.6 nM and 42.5 nM and 55.4 nM and 86.5 nM and 52.6 nM and 56.7 nM and 66.2 nM and 63.7 nM and 65.2 nM and 64.5 nM and 64.2 nM and 64.6 nM and 52.2 nM and 55.3 nM (2×) and 96.6 nM and 109 nM and 107 nM and 55.1 nM and 53 nM and 33.2 nM and 32.3 nM and 23.5 nM and 31.2 nM and 34 nM and 96.8 nM and 36 nM and 36.8 nM and 35.3 nM and 36.1 nM and 36.6 nM and 42.7 nM and 44.4 nM (2×) and 78.2 nM and 158 nM and 48.4 nM and 54 nM and 57.8 nM and 53.1 nM and 58.7 nM | 48 ± 17 nM | 49.4 nM and 29.7 nM (2×) and 21.8 nM and 18 nM and 21.3 nM and 22.2 nM and 18.6 nM and 21.6 nM and 46 nM and 35.8 nM and 25 nM and 35.5 nM (2×) and 36.4 nM and 29.1 nM and 25.9 nM and 29.2 nM and 27.1 nM and 30.4 nM (2×) and 31.6 nM and 33.5 nM and 23 nM (2×) and 29.5 nM and 54.4 nM and 51.5 nM and 24 nM and 36.6 nM and 32.2 nM and 65.8 nM and 63.7 nM and 42.6 nM and 25.7 nM and 43.8 nM and 40.2 nM and 16.5 nM and 24.8 nM and 34.1 nM and 26.1 nM and 30.2 nM | 27.3 nM and 29.3 nM and 18.1 nM and 21.5 nM and 21.7 nM and 19.9 nM and 23.1 nM and 18.9 nM and 42.5 nM and 22.4 nM and 27 nM and 28.2 nM and 20.7 nM and 30.6 nM and 34 nM (3×) and 32.6 nM and 30.2 nM and 34.7 nM and 36.6 nM and 33.4 nM and 20.8 nM and 53.5 nM and 23.4 nM and 49.7 nM and 23 nM and 24 nM and 38.4 nM and 37.6 nM and 35 nM and 67.5 nM and 70.9 nM and 46.6 nM and 44.1 nM and 25.3 nM and 42.6 nM and 18.7 nM and 31.1 nM and 26.8 nM and 30.5 nM and 40.9 nM | 48 ± 17 nM | 41.5 nM (2×) and 50.5 nM (2×) and 46.7 nM (2×) and 58.6 nM (2×) and 54.9 nM and 55.3 nM (2×) and 61.9 nM and 60.8 nM and 59.4 nM and 56.4 nM (2×) and 58.5 nM and 55.9 nM and 44.1 nM (3×) and 66.1 nM and 65.6 nM and 59.3 nM and 60.7 nM and 64.2 nM and 61.1 nM (2×) and 63.1 nM (2×) and 72.4 nM and 76.3 nM and 46.2 nM (2×) and 47.7 nM (2×) and 84.8 nM and 89.7 nM and 32 nM and 34.9 nM and 57.7 nM and 57.6 nM and 55.4 nM and 26.3 nM and 29.8 nM and 46.1 nM and 26.7 nM and 39.1 nM and 38.8 nM (2×) and 42.6 nM and 42.2 nM and 43 nM and 27.6 nM and 28.3 nM and 27.5 nM (2×) and 46 nM and 60.6 nM and 42.3 nM and 49.5 nM (2×) and 49.3 nM and 42.8 nM and 48.8 nM and 46.3 nM (2×) and 49.7 nM and 47.2 nM (2×) and 49 nM (2×) and 50.2 nM and 49.2 nM (3×) and 51.2 nM and 50.1 nM (2×) and 51.1 nM and 50.4 nM and 52.4 nM (2×) and 52.5 nM (2×) and 52 nM (2×) and 56.1 nM and 68 nM and 55.7 nM and 52.1 nM and 60.9 nM and 51.8 nM and 47 nM and 47.4 nM and 48.2 nM and 102 nM (2×) and 53.7 nM and 54.7 nM and 56.6 nM (2×) and 44.3 nM (2×) and 47.5 nM and 101 nM and 53.5 nM and 64.4 nM and 66.2 nM and 65.5 nM and 64.6 nM and 64.8 nM and 92.1 nM and 55.6 nM and 55.5 nM and 112 nM and 107 nM and 59.8 nM and 54.4 nM and 32.2 nM and 41.9 nM and 44.7 nM (2×) and 30.9 nM and 79.5 nM and 33.5 nM and 26.9 nM and 33.6 nM and 39.7 nM and 36.7 nM and 36.8 nM and 37.3 nM and 38.4 nM and 51.3 nM and 42.7 nM and 45.1 nM and 46.5 nM and 157 nM and 52.2 nM | 101 nM and 109 nM (2×) and 108 nM and 118 nM (2×) and 103 nM and 112 nM and 115 nM (2×) and 104 nM and 76.8 nM and 91.4 nM and 77.5 nM and 72.4 nM and 95.9 nM and 122 nM and 90.9 nM and 83.6 nM and 106 nM and 89.9 nM and 93.4 nM (2×) and 86.9 nM and 97.7 nM and 84.8 nM and 184 nM and 180 nM and 117 nM and 86 nM and 87.9 nM and 87.4 nM and 189 nM and 202 nM and 148 nM and 124 nM and 121 nM and 136 nM and 97.4 nM and 130 nM and 99.2 nM and 105 nM and 102 nM | 108 ± 30 nM | 31 ± 12 nM | – | – | – | – | –
2 | Cc1ncsc1-c1ccc([C@H](CC[C@H](C)CCN2CCC(c3ccc4c(c3)n(C3CCCC3)c3nc(=O)c5c(Br)cccc5n43)CC2)NC(=O)[C@@H]2C[C@H](O)CN2C(=O)[C@@H](NC(=O)C2(F)CC2)C(C)(C)C)cc1 [compound 12] | 236 ± 175 nM | 148 nM and 161 nM and 256 nM and 158 nM | 181 ± 44 nM | – | – | 203 ± 65 nM | 125 nM and 272 nM and 263 nM and 154 nM | > 400 nM and 385 nM and 314 nM | 367 ± 38 nM | – | 411 nM and 372 nM and 85.9 nM | 67.7 nM and 82.1 nM and 74.9 nM | 67.9 nM and 85.8 nM and 79.7 nM | 75 ± 6 nM | –
3 | Cc1ncsc1-c1ccc(CNC(=O)[C@@H]2C[C@@H](O)CN2C(=O)[C@@H](NC(=O)C2(F)CC2)C(C)(C)C)c(OCCOCCOCCOCCN2CCC(c3ccc4c(c3)n(C3CCCC3)c3nc(=O)c5c(Br)cccc5n43)CC2)c1 [compound 22] | – | 95.1 nM and 86.8 nM and 90.2 nM and 144 nM | 102 ± 27 nM | 33.2 nM and 39.2 nM and 42.6 nM | 84.2 nM and 107 nM and 111 nM (2×) | 274 ± 41 nM | 242 nM and 328 nM and 288 nM and 245 nM | 73.1 nM and 97.3 nM and 87.2 nM and 102 nM | 89 ± 13 nM | 103 ± 13 nM | 280 nM and 175 nM and 133 nM | – | – | – | 187 ± 76 nM
4 | Cc1ncsc1-c1ccc([C@H](CC[C@@H](C)CCN2CCC(c3ccc4c(c3)n(C3CCCC3)c3nc(=O)c5c(Br)cccc5n43)CC2)NC(=O)[C@@H]2C[C@@H](O)CN2C(=O)[C@@H](NC(=O)C2(F)CC2)C(C)(C)C)cc1 [compound 29] | – | 29.4 nM and 32.4 nM and 32.3 nM and 32.6 nM | 32 ± 2 nM | 2.66 nM and 3.59 nM and 4.13 nM | 66.7 nM and 78.8 nM and 115 nM | 201 ± 45 nM | 166 nM and 269 nM and 192 nM and 189 nM | 49.3 nM and 72.5 nM and 61.2 nM | 60 ± 12 nM | 85 ± 25 nM | 4.01 nM and 5.99 nM and 2.49 nM and 8.59 nM and 7.01 nM | – | – | – | 5 ± 2 nM
